Source: patent US10251842B1, “Nanocapsule containing a bioactive compound, and a method of reducing toxicity resulting from cancer therapy” (King Abdulaziz University, priority 2017, dated 2019)
Marks after values point to notes of the source that are not given here.

Key:
[1] = test system: SUIT2 pancreatic cancer cells; assay: MTT cell viability/proliferation assay, SUIT2; assay type: cell-based, human; details: SUIT2, 24 hours, 1 μg/ml
Procedure: SUIT2-luc cells were grown in DMEM supplemented with 5% fetal bovine serum, 1% penicillin, and 1% streptomycin. Cells were cultured at 37° C. to sub-confluence and treated with 0.25% w/v typsin/EDTA to affect cell release from culture flask. After washing cells with culture medium, cells were suspended in DMEM (free of phenol red and fetal bovine serum) and counted.
SUIT2 cells were subjected to treatment with unencapsulated DIM, unencapsulated EA, combinations thereof, and the nanocapsules containing DIM and/or EA at concentrations of the bioactive compounds ranging from 0.1 to 10 μg. Briefly, cells were seeded at a density of 10^4 cells/well in 96-well plates, and then incubated with compounds and nanocapsules for 24 hours. Cell viability/proliferation was determined by MTT assay, as per the manufacturer's protocol. MTT solution was added to each well, and cells were further incubated for 4 hours at 37° C. The formed dye was solubilized by the addition of 50 μL of DMSO and incubated for 10 min at 37° C. The optical density of each well was determined using an ELISA plate reader at an activation wavelength of 570 nm and reference wavelength of 650 nm. The percentage of viable cells was determined by comparison to untreated control cells.

[2] = test system: cisplatin-induced NF-κB; assay: NF-κB luciferase assay in HeLa cells stimulated with cisplatin; assay type: cell-based; details: Homo sapiens, 3 μM (3 μM total for combinations), n = 3, read-out: Mean % inhibition of cisplatin-induced NFkB ± SD
Procedure: The induction of NF-κB by cisplatin and other chemotherapies is known to be associated with neuropathy and nephrotoxicity. In this example, the effect of unencapsulated DIM and EA, and the nanocapsules cisplatin-induced NF-κB was studied using HeLa cells which expressed NF-κB.
HeLa cells were seeded at 1×10^5 cells in 2 ml/well in 6-well plates at 37° C. for 24 hours. The doses of the test compounds were based on preliminary studies. Test compounds (nanocapsules containing DIM, nanocapsules containing E&, nanocapsules containing DIM and EA, unencapsulated DIM, and unencapsulated EA) were added at concentrations ranging from 1-3 μM to the plate with fresh medium including 0.5% FBS and incubated at 37° C. in 5% CO2 for an additional 3 hours. For induction of transcription and to test the biological response of the promoters, the cell line stimulated with cisplatin (Sigma) and the cells were incubated at 37° C. in 5% CO2 for 24 hours. The luciferase activity determined by using the luciferase assay system (Promega, Madison, Wis., US). […] Luminescence was immediately measured using Glomax 20/20 Illuminometer (Promega). Luciferase expression of each test compound was quantified as the relative light units (RLU), normalized to readings of control wells, and expressed as relative NF-κB reporter activity. The mean % inhibitory effects of the compounds were calculated.

[3] = test system: SUIT2 pancreatic tumor; assay: CAM pancreatic cancer cell implant model (tumor growth, tumor angiogenesis, IVIS bioluminescence); assay type: in vivo, chick embryo; details: for suppression of vascular pattern / tumor angiogenesis of pancreatic tumor: 1 μg/CAM, 3 days of incubation, nanocapsules versus unencapsulated; for viable pancreatic cancer cells, bioluminescence (IVIS): SUIT2-luc tumors, ex vivo imaging
Procedure: To determine the relative potency of different nanocapsules and unencapsulated bioactive compounds, they were tested in the CAM pancreatic cancer cell implant model of tumor growth and tumor angiogenesis by modifying published protocols (Marcinkiewicz C. Weinreb P H, Calvete J J, Kisiel D G, Mousa S A, Tuszynski G P, Lobb R R. A Potent Selective Inhibitor of alpha1beta1 Integrin in Vitro and Angiogenesis in Vivo. Cancer Res. 2003; 63(9): 2020-2023; and Deryugina E I and Quigley J P: Chick Embryo Chorioallantoic Membrane Models to Quantify Angiogenesis induced by inflammatory and tumor cells or purified effector molecules. Methods in Enzymol. 2008; 444: 21-41, each incorporated herein by reference in their entirety).
A 7-day old chick embryo were purchased from Spafas, Inc. (Preston, Conn.) and incubated at 37° C. with 55% relative humidity. A hypodermic needle was used to make a small hole in the shell at the air sac and a second hole will be made on the broadside of the egg, directly over an avascular portion of the embryonic membrane that was identified by candling. A false air sac was created beneath the second hole by the application of negative pressure at the first hole, causing the CAM to separate from the shell. […] Treatment effects (Tumor growth, and tumor angiogenesis were determined 7 days after tumor cell implantation. For these studies, Matrigel® (BD Bioscience, San Jose Calif.) were thawed overnight at 4° C. and placed on ice. Cells in exponential growth phase were harvested using 0.25% trypsin-EDTA washed and suspended in medium. Only suspensions of single cells with a viability exceeding 95% were used. Approximately 1×10^6 cells in 30 μL of medium mixed with same volume (30 μL) of Matrigel was implanted on the chorioallantoic membrane.
After incubation at 37° C. with 55% relative humidity for 3 days, the CAM tissue directly beneath each filter disk was resected from control and treated CAM samples. […] Digital images of CAM sections exposed to filters were collected, using a 3-CCD color video c vera system (Toshiba America, New York, N.Y.), and analyzed with Image-Pro software (Media Cybernetics, Silver Spring, Md.). The numbers of vessel branch points contained in a circular region equal to the area of each filter disk were counted. One image was counted in each CAM preparation, and findings from 6-8 CAM preparations group were analyzed for each treatment condition.
Results presented as mean tumor weight (mg) per treatment group and tumor hemoglobin (mg/dl)±SD, n=8 eggs per group. The effect of these treatments was determined after 7 days of implantation. […]

[4] = Plasma cardiac troponin in MCF-7 tumor bearing mice; assay type: in vivo
[5] = test system: breast cancer MCF-7 tumor; assay: Subcutaneous xenograft in nude mice, breast cancer MCF-7; assay type: in vivo; details: SC, mean ± SEM, n = 4-5 animals/group
Procedure: Immunodeficient, female NCr nude mice aged 5-6 weeks and weighing between […] were maintained under specific pathogen-free conditions and housed under controlled conditions of temperature (20-24° C.) and humidity (60-70%) and 12 h light/dark cycle with ad libitum access to water and food. Mice were allowed to acclimatize for 5 days prior to the start of study.
Xenografts containing 1×10^6 to 2×10^6 tumor cells (e.g., pancreatic SUIT2, colon HT-29, glioblastoma U87, or breast cancer MCF-7 cells) were implanted subcutaneously in a mouse flank. There were 2 grafts mouse and there were 4 mice in each group (control, treatments using vehicle). DMSO or ethyl acetate used during the preparation of nanocapsules was totally removed by dialysis and the vehicle used to disperse the DIM or EA and their nanocapsule forms was phosphate buffered saline (PBS).
Tumors were excised at the end of the study from all treatment arms, which included control; DIM; EA; nanocapsule containing DIM; nanocapsule containing EA; nanocapsule containing DIM acid EA; nanocapsule containing cisplatin; nanocapsule containing doxorubicin; nanocapsule containing cisplatin, DIM, and EA; and nanocapsule containing doxorubicin, DIM, and EA. Tumor growth was measured.

| SMILES | effect on cell viability/proliferation [1] | inhibition at 3 µM [2] | suppression of vascular pattern / tumor angiogenesis of pancreatic tumor [3] | viable pancreatic cancer cells, bioluminescence (IVIS) [3] | plasma cardiac troponin ([4]; MCF-7 tumor bearing mice) | Troponin (% from control) ([4]; mice, SC) | Mean Breast (MCF-7) Tumor Growth [5] |
| --- | --- | --- | --- | --- | --- | --- | --- |
| c1ccc2c(Cc3c[nH]c4ccccc34)c[nH]c2c1 [DIM, 3,3′-diindolylmethane] | did not show any significant effect | 20 ± 5% | mild suppression | statistically significant reduction | – | – | – |
| COc1cccc2c1C(=O)c1c(O)c3c(c(O)c1C2=O)C[C@@](O)(C(=O)CO)C[C@@H]3O[C@H]1C[C@H](N)[C@H](O)[C@H](C)O1 [DOX, doxorubicin] | – | – | – | – | large increase | +50-70%** | 0.70 ± 0.15 g |
| O=c1oc2c(O)c(O)cc3c(=O)oc4c(O)c(O)cc1c4c23 [Ellagic acid, ellagic acid] | did not show any significant effect | 26 ± 4% | mild suppression | statistically significant reduction | – | – | – |
